Columns and labels:
D(1A) dopamine receptor = D(1A) dopamine receptor (Homo sapiens, UniProt P21728); experiment: DRUGMATRIX: Dopamine D1 radioligand binding (ligand: [3H] SCH-23390); type: cell membranes, CHO, Membrane; conditions: cho; Not Active = under 50% inhibition at 10 µM
[1] = biological target: T1, Alpha-2A adrenergic receptor (Homo sapiens, UniProt P08913); type: cell membranes, Sf9, Membrane; conditions: sf9; also: in other assays of this panel Not Active means under 50% inhibition at 10 µM
T1 sequence (P08913 whole entry): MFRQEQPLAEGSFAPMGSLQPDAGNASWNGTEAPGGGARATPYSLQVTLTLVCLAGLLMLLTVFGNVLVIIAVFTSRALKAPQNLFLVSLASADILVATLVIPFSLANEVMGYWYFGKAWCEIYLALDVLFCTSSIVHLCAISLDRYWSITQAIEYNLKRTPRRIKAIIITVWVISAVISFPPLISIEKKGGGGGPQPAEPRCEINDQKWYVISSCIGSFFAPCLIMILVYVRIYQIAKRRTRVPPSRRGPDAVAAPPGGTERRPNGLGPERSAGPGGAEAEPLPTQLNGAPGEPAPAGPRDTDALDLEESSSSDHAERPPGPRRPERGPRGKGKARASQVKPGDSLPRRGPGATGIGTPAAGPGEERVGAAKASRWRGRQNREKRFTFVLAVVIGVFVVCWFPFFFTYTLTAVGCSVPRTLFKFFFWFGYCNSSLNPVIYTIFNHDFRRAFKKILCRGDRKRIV

[2] = DRUGMATRIX: Phorbol Ester radioligand binding (ligand: [3H] PDBu); type: cell membranes, Mus musculus, ICR, Brain, Membrane; conditions: Not Active = under 50% inhibition at 10 µM
[3] = biological target: T2, Amine oxidase [flavin-containing] A (Homo sapiens, UniProt P21397); experiment: DRUGMATRIX: Monoamine Oxidase MAO-A enzyme inhibition (substrate: Kynuramine); design: species or system BTI-TN-5B1-4; conditions: bti-tn-5b1-4; Not Active = under 50% inhibition at 10 µM
T2 sequence (P21397 whole entry): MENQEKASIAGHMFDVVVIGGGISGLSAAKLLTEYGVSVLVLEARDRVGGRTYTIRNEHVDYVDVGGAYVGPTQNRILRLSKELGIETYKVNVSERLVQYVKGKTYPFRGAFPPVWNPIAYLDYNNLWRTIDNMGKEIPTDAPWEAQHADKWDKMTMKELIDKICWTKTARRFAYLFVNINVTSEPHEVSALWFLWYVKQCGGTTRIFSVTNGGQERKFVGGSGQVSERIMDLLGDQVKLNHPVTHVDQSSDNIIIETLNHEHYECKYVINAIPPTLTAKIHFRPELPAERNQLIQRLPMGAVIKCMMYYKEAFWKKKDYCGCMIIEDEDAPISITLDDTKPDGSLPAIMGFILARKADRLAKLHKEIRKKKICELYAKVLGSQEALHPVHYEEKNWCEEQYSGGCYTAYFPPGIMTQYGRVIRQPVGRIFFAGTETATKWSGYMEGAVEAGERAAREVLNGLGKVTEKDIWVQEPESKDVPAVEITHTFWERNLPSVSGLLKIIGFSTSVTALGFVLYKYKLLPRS

Neutrophil elastase = biological target: T3, Neutrophil elastase (Homo sapiens, UniProt P08246); type: tissue-based;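 also: inhibition of neutrophil elastase enzyme activity, measured with a p-nitroanilide-linked peptide substrate; in other assays of this panel Not Active means under 50% inhibition at 10 µM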
T3 sequence (P08246 whole entry): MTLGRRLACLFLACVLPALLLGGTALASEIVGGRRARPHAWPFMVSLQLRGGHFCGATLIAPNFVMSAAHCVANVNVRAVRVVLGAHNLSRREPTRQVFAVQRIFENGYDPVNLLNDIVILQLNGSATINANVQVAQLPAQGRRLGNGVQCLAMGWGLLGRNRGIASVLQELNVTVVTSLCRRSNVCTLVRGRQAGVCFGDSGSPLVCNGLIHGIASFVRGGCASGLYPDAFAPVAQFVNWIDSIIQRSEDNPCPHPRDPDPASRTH

[4] = DRUGMATRIX: Platelet-Derived Growth Factor (PDGF) radioligand binding (ligand: [125I] PDGF); type: cell-based; conditions: nih3t3; Not Active = under 50% inhibition at 10 µM
[5] = DRUGMATRIX: Phosphodiesterase PDE3 enzyme inhibition (substrate: [3H]cAMP + cAMP); type: tissue-based, Homo sapiens; conditions: platelet; Not Active = under 50% inhibition at 10 µM
[6] = DRUGMATRIX: Interleukin IL-1 radioligand binding (ligand: [125I] interleukin 1beta); type: cell membranes, Membrane; conditions: nih3t3; Not Active = under 50% inhibition at 10 µM
[7] = biological target: T4, Cysteinyl leukotriene receptor 1 (Homo sapiens, UniProt Q9Y271); type: cell membranes, CHO-K1, Membrane; conditions: cho-k1; also: in other assays of this panel Not Active means under 50% inhibition at 10 µM
T4 sequence (Q9Y271 whole entry): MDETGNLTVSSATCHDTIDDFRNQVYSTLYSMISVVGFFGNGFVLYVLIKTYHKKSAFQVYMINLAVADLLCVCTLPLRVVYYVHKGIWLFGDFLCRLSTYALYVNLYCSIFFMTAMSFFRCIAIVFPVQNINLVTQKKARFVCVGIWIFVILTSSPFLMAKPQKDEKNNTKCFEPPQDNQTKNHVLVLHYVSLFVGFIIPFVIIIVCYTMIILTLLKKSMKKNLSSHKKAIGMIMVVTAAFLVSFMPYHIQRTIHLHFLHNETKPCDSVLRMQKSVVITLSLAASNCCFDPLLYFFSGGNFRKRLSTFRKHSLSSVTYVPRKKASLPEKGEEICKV

Carbonic anhydrase 2 = Carbonic anhydrase 2 (Homo sapiens, UniProt P00918); experiment: DRUGMATRIX: Carbonic Anhydrase II enzyme inhibition (substrate: 4-Nitrophenyl acetate (4-NPA)); type: tissue-based, Erythrocyte; conditions: erythrocyte; Not Active = under 50% inhibition at 10 µM
[8] = DRUGMATRIX: Purinergic P2X radioligand binding (ligand: [3H] alpha, beta-Methylene-ATP); type: cell membranes, Oryctolagus cuniculus, New Zealand albino, Urinary bladder, Membrane; conditions: Not Active = under 50% inhibition at 10 µM
[9] = biological target: T5, Cholecystokinin receptor type A (Homo sapiens, UniProt P32238); type: cell membranes, Membrane; conditions: 1321-n1; also: in other assays of this panel Not Active means under 50% inhibition at 10 µM
T5 sequence (P32238 whole entry): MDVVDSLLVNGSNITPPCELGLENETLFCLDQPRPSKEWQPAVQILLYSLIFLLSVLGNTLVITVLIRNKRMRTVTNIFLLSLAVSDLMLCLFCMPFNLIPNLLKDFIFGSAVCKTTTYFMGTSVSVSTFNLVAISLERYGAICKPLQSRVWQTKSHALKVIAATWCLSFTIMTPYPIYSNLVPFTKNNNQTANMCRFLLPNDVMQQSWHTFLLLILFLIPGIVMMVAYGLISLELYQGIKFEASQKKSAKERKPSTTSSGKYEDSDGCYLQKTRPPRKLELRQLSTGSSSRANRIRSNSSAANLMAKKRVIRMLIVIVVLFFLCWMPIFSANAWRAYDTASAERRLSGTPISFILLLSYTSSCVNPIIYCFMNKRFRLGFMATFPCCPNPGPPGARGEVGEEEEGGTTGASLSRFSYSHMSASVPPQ

[10] = DRUGMATRIX: Glutamate, NMDA, Phencyclidine radioligand binding (ligand: [3H] TCP); type: cell membranes, Rattus norvegicus, Wistar, Cerebral cortex, Membrane; conditions: Not Active = under 50% inhibition at 10 µM

D(1A) dopamine receptor, sequence (P21728 whole entry): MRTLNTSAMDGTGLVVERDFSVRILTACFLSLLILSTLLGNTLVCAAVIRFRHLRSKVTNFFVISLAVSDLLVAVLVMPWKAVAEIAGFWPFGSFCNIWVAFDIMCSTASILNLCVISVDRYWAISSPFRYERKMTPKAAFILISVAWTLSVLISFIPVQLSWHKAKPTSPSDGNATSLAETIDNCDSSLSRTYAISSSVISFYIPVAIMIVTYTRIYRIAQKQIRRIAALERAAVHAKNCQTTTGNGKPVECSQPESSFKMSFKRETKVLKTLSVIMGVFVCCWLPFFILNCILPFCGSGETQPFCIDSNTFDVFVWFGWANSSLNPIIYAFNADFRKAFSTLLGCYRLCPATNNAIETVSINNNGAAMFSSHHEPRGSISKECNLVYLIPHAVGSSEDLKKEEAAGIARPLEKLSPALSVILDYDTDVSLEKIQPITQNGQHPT

CC=CC(=O)N(CC)c1ccccc1C
Not Active: IC50 (D(1A) dopamine receptor) | IC50 [1] | IC50 [2] | Ki [2] | IC50 [3] | IC50 (Neutrophil elastase) | IC50 [4] | Ki [4] | IC50 [5] | Ki [5] | IC50 [6] | Ki [6] | IC50 [7] | IC50 (Carbonic anhydrase 2) | IC50 [8] | Ki [8] | IC50 [9] | IC50 [10] | Ki [10]

COc1ccc2c(c1)c(CC(=O)OCC(=O)O)c(C)n2C(=O)c1ccc(Cl)cc1 [ACEMETACIN]
Not Active: IC50 (D(1A) dopamine receptor) | IC50 [1] | IC50 [2] | Ki [2] | IC50 [3] | IC50 (Neutrophil elastase) | IC50 [4] | Ki [4] | IC50 [5] | Ki [5] | IC50 [6] | Ki [6] | IC50 [7] | IC50 (Carbonic anhydrase 2) | IC50 [8] | Ki [8] | IC50 [9] | IC50 [10] | Ki [10]

CCCSc1ccc2nc(NC(=O)OC)[nH]c2c1 [ALBENDAZOLE]
Not Active: IC50 (D(1A) dopamine receptor) | IC50 [1] | IC50 [2] | Ki [2] | IC50 [3] | IC50 (Neutrophil elastase) | IC50 [4] | Ki [4] | IC50 [5] | Ki [5] | IC50 [6] | Ki [6] | IC50 [7] | IC50 (Carbonic anhydrase 2) | IC50 [8] | Ki [8] | IC50 [9] | IC50 [10] | Ki [10]

N=C(N)NCCCCNC(=N)N.O=S(=O)(O)O [ARCAINE SULFATE]
Not Active: IC50 (D(1A) dopamine receptor) | IC50 [1] | IC50 [2] | Ki [2] | IC50 [3] | IC50 (Neutrophil elastase) | IC50 [4] | Ki [4] | IC50 [5] | Ki [5] | IC50 [6] | Ki [6] | IC50 [7] | IC50 (Carbonic anhydrase 2) | IC50 [8] | Ki [8] | IC50 [9] | IC50 [10] | Ki [10]

CC(C)(Oc1ccc(CCNC(=O)c2ccc(Cl)cc2)cc1)C(=O)O [BEZAFIBRATE]
Not Active: IC50 (D(1A) dopamine receptor) | IC50 [1] | IC50 [2] | Ki [2] | IC50 [3] | IC50 (Neutrophil elastase) | IC50 [4] | Ki [4] | IC50 [5] | Ki [5] | IC50 [6] | Ki [6] | IC50 [7] | IC50 (Carbonic anhydrase 2) | IC50 [8] | Ki [8] | IC50 [9] | IC50 [10] | Ki [10]

CC1=Nc2ccc(Cl)cc2S(=O)(=O)N1 [DIAZOXIDE]
Not Active: IC50 (D(1A) dopamine receptor) | IC50 [1] | IC50 [2] | Ki [2] | IC50 [3] | IC50 (Neutrophil elastase) | IC50 [4] | Ki [4] | IC50 [5] | Ki [5] | IC50 [6] | Ki [6] | IC50 [7] | IC50 (Carbonic anhydrase 2) | IC50 [8] | Ki [8] | IC50 [9] | IC50 [10] | Ki [10]

CCc1ccc(C(=O)C(C)CN2CCCCC2)cc1 (configuration not stated) [EPERISONE]
Not Active: IC50 (D(1A) dopamine receptor) | IC50 [1] | IC50 [2] | Ki [2] | IC50 [3] | IC50 (Neutrophil elastase) | IC50 [4] | Ki [4] | IC50 [5] | Ki [5] | IC50 [6] | Ki [6] | IC50 [7] | IC50 (Carbonic anhydrase 2) | IC50 [8] | Ki [8] | IC50 [9] | IC50 [10] | Ki [10]

CC(C)n1c(/C=C/C(O)CC(O)CC(=O)O)c(-c2ccc(F)cc2)c2ccccc21 (configuration not stated) [FLUVASTATIN]
Not Active: IC50 (D(1A) dopamine receptor) | IC50 [1] | IC50 [2] | Ki [2] | IC50 [3] | IC50 (Neutrophil elastase) | IC50 [4] | Ki [4] | IC50 [5] | Ki [5] | IC50 [6] | Ki [6] | IC50 [7] | IC50 (Carbonic anhydrase 2) | IC50 [8] | Ki [8] | IC50 [9] | IC50 [10] | Ki [10]
